Values after ≈ are worked out from the molar mass of the structure shown. Where a name gives a salt, the structure may show the parent alone.
Experiments:
[1] = Pharmacokinetic analysis of Compound 1 and its salts after oral capsule administration (Example 4); type: in vivo, cynomolgus monkeys; settings: single PO capsule, 30 mg/kg
Procedure: A pharmacokinetic analysis was performed comparing administration of Compound 1 with certain salts of Compound 1 after oral (PO) administration in 3 male cynomolgus monkeys. The subjects received a single PO oral gavage of active pharmaceutical ingredient (API) (e.g., Compound 1 fumarate, Compound 1 sulfate, Compound 1 hydrochloride, Compound 1 phosphate, Compound 1 tosylate, Compound 1 malonate, Compound 1 maleate, or Compound 1 free base) in a capsule at a dose of 30 mg/kg. Following dose administration, the animals were flushed with approximately 10 milliliters of tap water to ensure all API was administered. Animals were observed twice daily and at sample collection time-points for any abnormal clinical and behavioral signs. Body weights were taken prior to dosing and weekly thereafter until study termination. Blood samples (0.5 mL) were collected pre-dose, 15 minutes, 30 minutes, and 1, 2, 4, 6, 8, 10, 12, and 24 hours post-dose. Each blood sample was collected from the monkey's femoral, saphenous or other available vein via direct venipuncture, placed into a polypropylene tube containing K2EDTA as the anticoagulant, and gently inverted several times to mix. The blood samples were kept on wet ice until centrifugation. Blood was centrifuged within 10 minutes of collection. The samples were centrifuged at a temperature of 4° C., at 3,000 g, for 5 minutes. The resulting plasma (˜0.25 mL) was divided into two equal aliquots (125 μL each) into polypropylene tubes, designated as Set A and Set B, after centrifugation. Plasma samples designated for certain metabolites (Set A) were treated with 12.5 μL of 2 M ascorbic acid (plasma: ascorbic acid=[…], v:v) prepared beforehand by combining 0.352 g of ascorbic acid into 1 mL of sterile water in a glass vial and mixing thoroughly. […] Once plasma was prepared, the samples were snap frozen on dry ice. All plasma samples were stored frozen below −70° C. until analyzed.

[2] = Intrinsic dissolution rate and solubility in 0.1 N HCl with 1% Tween 80 (USP <1087>); type: physicochemical; settings: 0.1 N HCl with 1% Tween 80, 37° C.; for Solubility, time point 15 min / Solubility, time point 30 min / Solubility, time point 45 min / Solubility, time point 60 min / Solubility, time point 75 min / Solubility, time point 90 min / Solubility, time point 105 min / Solubility, time point 120 min: 500 mL, pellet about 75 mg; for Intrinsic Dissolution Rate IDR: paddle 100 rpm, die surface 0.5 cm^2; for Solubility, Cumulative: sum of the 15-120 min time points
Procedure: The intrinsic dissolution rate was determined by forming compacted pellets of approximately 75 mg of API using a compression force of 1200 pounds of force, and each pellet (die surface area: 0.5 cm^2) was immersed into a flat bottom vessel containing 500 mL of medium (aqueous 0.1 N HCl with 1% Tween 80 (polyoxyethylene (20) sorbitan monooleate)), using a Distek 2100A dissolution bath, and Distek Circulator/heater (set to 37° C.), with a paddle speed of 100 rpm. An aliquot of the sample (1 mL) was pulled from dissolution media at 15, 30, 45, 60, 75, 90, 105, and 120 minutes, filtered, and analyzed by HPLC. The slope of the dissolution profile corresponded to an intrinsic dissolution rate of hemi-fumarate salt Form B of 6.2 μg/(min·cm^2) as compared to 8.9 μg/(min·cm^2) for Compound 1 (free base). Determination of intrinsic dissolution rate (IDR) was performed for Compound 1 and seven different salts of Compound 1 according to USP <1087> in 0.1 N hydrochloric acid with 1% Tween 80 (Polyoxyethylene […] sorbitan monooleate). Compacted pellets containing approximately 75 mg API were prepared using a compression force of 1200 pounds of force, and each pellet (die surface area: 0.5 cm^2) was immersed into a flat bottom vessel containing 500 mL of medium, using a Distek 2100A dissolution bath, and Distek Circulator/heater (set to 37° C.), with a paddle speed of 100 rpm. An aliquot of the sample (1 mL) was pulled from dissolution media at 15, 30, 45, 60, 75, 90, 105, and 120 minutes, filtered, and analyzed by HPLC. HPLC for IDR and solid-state stability analyses were conducted with an Agilent 1260 Infinity system equipped with a G1311B Quad pump, […] Autosampler, G1330B auto-sampler thermostat, G1316A Thermostatted Column Compartment with a column switch valve, and […] diode array detector.

[3] = 3 male cynomolgus monkeys, plasma Compound 1
[4] = 3 male cynomolgus monkeys, plasma Compound 1, listed as Free base
[5] = listed as Compound 1 (parent free base)

Row | Structure (SMILES) | AUClast [1, 3] | Cmax [1, 3] | Tmax [1, 3] | Solubility, time point 15 min [2] | Solubility, time point 30 min [2] | Solubility, time point 45 min [2] | Solubility, time point 60 min [2] | Solubility, time point 75 min [2] | Solubility, time point 90 min [2] | Solubility, time point 105 min [2] | Solubility, time point 120 min [2] | Intrinsic Dissolution Rate IDR [2] | Solubility, Cumulative [2] | other results
1 | [2H]C([2H])([2H])C(c1cc2nnc(-c3cc(F)ccc3F)n2nc1OCc1ncnn1C)(C([2H])([2H])[2H])C([2H])([2H])[2H] [Malonate Salt, 3-(2,5-difluorophenyl)-7-[1,1-di(methyl-d3)ethyl-2,2,2-d3]-6-[(1-methyl-1H-1,2,4-triazol-5-yl)methoxy]-1,2,4-triazolo[4,3-b]pyridazine] | 24694 ng·h/mL | 2010 ng/mL | 4.7 h | 0.352 µg/mL | 0.454 µg/mL | 0.579 µg/mL | 0.68 µg/mL | 0.757 µg/mL | 0.87 µg/mL | 1.04 µg/mL | 1.05 µg/mL | 6.9 μg/(min · cm^2) | 5.782 µg/mL | 
2 | [2H]C([2H])([2H])C(c1cc2nnc(-c3cc(F)ccc3F)n2nc1OCc1ncnn1C)(C([2H])([2H])[2H])C([2H])([2H])[2H] [Phosphate Salt, 3-(2,5-difluorophenyl)-7-[1,1-di(methyl-d3)ethyl-2,2,2-d3]-6-[(1-methyl-1H-1,2,4-triazol-5-yl)methoxy]-1,2,4-triazolo[4,3-b]pyridazine] | 18378 ng·h/mL | 1096 ng/mL | 5.3 h | 0.358 µg/mL | 0.375 µg/mL | 0.449 µg/mL | 0.543 µg/mL | 0.615 µg/mL | 0.769 µg/mL | 0.912 µg/mL | 0.11 µg/mL | 7.0 μg/(min · cm^2) | 4.131 µg/mL | 
3 | [2H]C([2H])([2H])C(c1cc2nnc(-c3cc(F)ccc3F)n2nc1OCc1ncnn1C)(C([2H])([2H])[2H])C([2H])([2H])[2H] [Tosylate Salt, 3-(2,5-difluorophenyl)-7-[1,1-di(methyl-d3)ethyl-2,2,2-d3]-6-[(1-methyl-1H-1,2,4-triazol-5-yl)methoxy]-1,2,4-triazolo[4,3-b]pyridazine] | 23248 ng·h/mL | 1629 ng/mL | 10.7 h | 0.56 µg/mL | 0.638 µg/mL | 0.755 µg/mL | 0.88 µg/mL | 1.02 µg/mL | 1.15 µg/mL | 1.43 µg/mL | 1.39 µg/mL | 8.7 μg/(min · cm^2) | 7.823 µg/mL | 
4 | [2H]C([2H])([2H])C(c1cc2nnc(-c3cc(F)ccc3F)n2nc1OCc1ncnn1C)(C([2H])([2H])[2H])C([2H])([2H])[2H] [Maleate Salt, 3-(2,5-difluorophenyl)-7-[1,1-di(methyl-d3)ethyl-2,2,2-d3]-6-[(1-methyl-1H-1,2,4-triazol-5-yl)methoxy]-1,2,4-triazolo[4,3-b]pyridazine] | 20575 ng·h/mL | 1388 ng/mL | 12.0 h | 0.245 µg/mL | 0.36 µg/mL | 0.462 µg/mL | 0.567 µg/mL | 0.681 µg/mL | 0.791 µg/mL | 0.941 µg/mL | 1.01 µg/mL | 7.3 μg/(min · cm^2) | 5.057 µg/mL | 
5 | [2H]C([2H])([2H])C(c1cc2nnc(-c3cc(F)ccc3F)n2nc1OCc1ncnn1C)(C([2H])([2H])[2H])C([2H])([2H])[2H] [Sulfate Salt, 3-(2,5-difluorophenyl)-7-[1,1-di(methyl-d3)ethyl-2,2,2-d3]-6-[(1-methyl-1H-1,2,4-triazol-5-yl)methoxy]-1,2,4-triazolo[4,3-b]pyridazine] | 18231 ng·h/mL | 1151 ng/mL | 4.0 h | 0.316 µg/mL | 0.364 µg/mL | 0.453 µg/mL | 0.569 µg/mL | 0.668 µg/mL | 0.772 µg/mL | 0.944 µg/mL | 1.06 µg/mL | 7.1 μg/(min · cm^2) | 5.146 µg/mL | 
6 | [2H]C([2H])([2H])C(c1cc2nnc(-c3cc(F)ccc3F)n2nc1OCc1ncnn1C)(C([2H])([2H])[2H])C([2H])([2H])[2H] [Compound 1, 3-(2,5-difluorophenyl)-7-[1,1-di(methyl-d3)ethyl-2,2,2-d3]-6-[(1-methyl-1H-1,2,4-triazol-5-yl)methoxy]-1,2,4-triazolo[4,3-b]pyridazine] |  | 1550 ng/mL |  |  |  |  |  |  |  |  |  |  |  | AUClast [1, 4]: 25463 ng·h/mL; Tmax [1, 4]: 4.0 h; AUClast ([1]; male cynomolgus monkeys): 25463 ng·h/mL; Solubility, time point 15 min [2, 5]: 0.413 µg/mL (≈ 1.01 µM); Solubility, time point 30 min [2, 5]: 0.464 µg/mL (≈ 1.14 µM); Solubility, time point 45 min [2, 5]: 0.641 µg/mL (≈ 1.57 µM); Solubility, time point 60 min [2, 5]: 0.823 µg/mL (≈ 2.01 µM); Solubility, time point 75 min [2, 5]: 0.89 µg/mL (≈ 2.18 µM); Solubility, time point 90 min [2, 5]: 1.026 µg/mL (≈ 2.51 µM); Solubility, time point 105 min [2, 5]: 1.23 µg/mL (≈ 3.01 µM); Solubility, time point 120 min [2, 5]: 1.31 µg/mL (≈ 3.21 µM); Intrinsic Dissolution Rate IDR ([2]; listed as Compound 1 (free base)): 8.9 μg/(min · cm^2); Intrinsic Dissolution Rate IDR [2, 5]: 8.9 μg/(min · cm^2); Solubility, Cumulative [2, 5]: 6.797 µg/mL (≈ 16.6 µM)
